Assay: Human HepG2 cell viability assay in 384 well format
Type: toxicity, cell-based
Set-up: dose 125 nL, time 70.5 hour; cytotoxicity at 70.5 h: concentration not given beside the values
Conditions: HepG2 cells, read-out: Inhibition
For `C[C@@H]1C[C@@H]2CCN(Cc3nccs3)C[C@H]2O1`, the cytotoxicity at 70.5 h was -9.1%.
For `CN1CCN(C[C@H]2CN3CC[C@H]2C[C@@H]3CNC(=O)c2ccco2)CC1`, the cytotoxicity at 70.5 h was -6.36%.
`Cc1cc(CN2CCN(C(=O)NCc3csc(C)n3)CC2)no1` showed a cytotoxicity at 70.5 h of 17.1%.
Work on `Cc1ccc(CNC(=O)NC2CCCc3c2cnn3CCO)cn1` (stereo unspecified) yielded a cytotoxicity at 70.5 h of -11.1%.
`COc1cc(C)c(C)cc1S(=O)(=O)NCC(O)c1cccn1C` (stereo unspecified) gave a cytotoxicity at 70.5 h of -5.03%.
`CC(NCC1(N(C)C)CCOCC1)c1ccc(S(C)(=O)=O)cc1` (stereo unspecified) gave a cytotoxicity at 70.5 h of -3.6%.
Compound `CCCOc1ccc(CNCCn2cccn2)cc1` has a cytotoxicity at 70.5 h of -12.1%.
With `Cc1ccc(C(=O)O)cc1-c1cccc(C(C)N(C)C)c1` (stereo unspecified) the cytotoxicity at 70.5 h was -2.39%.
`CCOCCCNCc1cc2c(C)cc(C)cc2n2c(=O)n(C)nc12` gave a cytotoxicity at 70.5 h of -0.158%.
`O=C(c1cccc(Oc2ccccc2)c1)N1CCCC(O)(CO)CC1` (stereo unspecified) gave a cytotoxicity at 70.5 h of -8.12%.
`O=C(NCC(F)(F)F)c1coc(COc2cccc(F)c2)n1` gave a cytotoxicity at 70.5 h of 14.5%.
`Cc1nn(C)cc1CN(C)c1nccc(-c2cn(C)nc2C)n1` gave a cytotoxicity at 70.5 h of -0.948%.
Compound `CN(C)C(=O)c1cccnc1SCc1ccccc1C#N` has a cytotoxicity at 70.5 h of -4.31%.
`Cc1oc(C(C)C)cc1C(=O)N1C[C@H]2CC[C@@H]1CN(c1ncccn1)C2` showed a cytotoxicity at 70.5 h of -13.7%.
Work on `CC(=O)NCC(Cc1cccc(F)c1)n1cccc1` (stereo unspecified) yielded a cytotoxicity at 70.5 h of -5.86%.
With `COCC(=O)N1CCCC2(CCN(c3cncnc3)C2=O)C1` (stereo unspecified) the cytotoxicity at 70.5 h was -8.34%.
`CS(=O)(=O)N1CC[C@@H]2OC(COCC(=O)N3CCCC3)CC[C@@H]21` (stereo partly specified) showed a cytotoxicity at 70.5 h of -6.9%.
`O=C(Cn1cc(Cl)cn1)Nc1ccc2c(c1)OCCCO2` gave a cytotoxicity at 70.5 h of 25.9%.
For `CC(C)N1CCC2(CCCN(C(=O)c3cncn3C)C2)CC1`, the cytotoxicity at 70.5 h was -12%.
With `O=C(c1ccc2c(c1)OCCCO2)N1CCCCC1C1OCCO1` (stereo unspecified) the cytotoxicity at 70.5 h was -3.71%.
`Cc1ccoc1C(=O)N1CCn2cc(CN3CCCC3)nc2C1` showed a cytotoxicity at 70.5 h of -4.12%.
Work on `CSc1nccn1-c1cccc(C(=O)NCC2CC2)c1` yielded a cytotoxicity at 70.5 h of 0.766%.
`CCNc1ccnc(CN2CCCC2C(=O)Nc2nccs2)c1` (stereo unspecified) gave a cytotoxicity at 70.5 h of 8.54%.
In the case of `CCCS(=O)(=O)N1CCC2(CCC(=O)N(CCc3ccccc3)C2)CC1`, the cytotoxicity at 70.5 h is reported as -10.1%.
`Cc1ncsc1-c1cc(C(=O)NCCO)ccn1` gave a cytotoxicity at 70.5 h of 21.2%.
With `COc1ccc(OC)c(C(O)CN2CCN(C3CCCC3)CC2)c1` (stereo unspecified) the cytotoxicity at 70.5 h was -7.66%.
With `CCN1CC(C(=O)N2CCc3cc(C(N)=O)n(C)c3C2)CC1=O` (stereo unspecified) the cytotoxicity at 70.5 h was -2.91%.
In the case of `CC(C)CNc1nnc(SC(C(=O)NCc2cccnc2)C(C)C)s1` (stereo unspecified), the cytotoxicity at 70.5 h is reported as -15.2%.
Work on `O=C(Nc1cccnc1)[C@H]1CN(C2CCCC2)C[C@H]2OCC[C@@H]12` yielded a cytotoxicity at 70.5 h of -2.64%.
For `O=C(C1CNCCN1C(=O)CCOc1ccccc1)N1CCCC1` (stereo unspecified), the cytotoxicity at 70.5 h was -1.81%.
`CC(CCNC(=O)NCCc1ccc(S(N)(=O)=O)cc1)c1ccccc1` (stereo unspecified) gave a cytotoxicity at 70.5 h of -8.25%.
`COc1ccc(CN2C[C@@H]3[C@H](CC(=O)N4CCCC4)[C@@H]3C2)cc1` showed a cytotoxicity at 70.5 h of -9.32%.
`COc1ncccc1NC(=O)N(Cc1ccco1)C1CC1` showed a cytotoxicity at 70.5 h of -14.3%.
In the case of `CS(=O)(=O)N1CCC(Nc2ccnc3ccc(Cl)cc23)CC1`, the cytotoxicity at 70.5 h is reported as -3.71%.
Compound `COc1ccc(CN2CCN(CCn3ccnc3)CC2)cc1F` has a cytotoxicity at 70.5 h of -13.3%.
In the case of `CCC(=O)Nc1cccc(OCC(=O)N2C[C@H]3CC[C@H]2C3)c1`, the cytotoxicity at 70.5 h is reported as -18.9%.
`Fc1ccccc1CN1CCCC2(CCN(c3ncccn3)C2)C1` (stereo unspecified) showed a cytotoxicity at 70.5 h of -9.02%.
For `O=C(CSc1nnc[nH]1)NCc1cccs1`, the cytotoxicity at 70.5 h was -2.74%.
For `CCC1CN(CC(=O)Nc2cc(C)nn2C)CCO1` (stereo unspecified), the cytotoxicity at 70.5 h was -5.03%.
In the case of `Nc1nc(NCCO)cc(N2CCc3c([nH]c4ccccc34)C2)n1`, the cytotoxicity at 70.5 h is reported as -7.97%.
With `CC(C)CCn1nc2ccc(S(=O)(=O)N3CCOCC3)cn2c1=O` the cytotoxicity at 70.5 h was -7.21%.
`O=c1[nH]c(CCN2CCCC2Cn2cncn2)nc2ccccc12` (stereo unspecified) showed a cytotoxicity at 70.5 h of -9.5%.
With `N#Cc1ccc(OC[C@]23COC[C@H]2CN(c2ncccn2)C3)nc1` the cytotoxicity at 70.5 h was -7.98%.
With `COc1ccc(CN2C[C@@H]3CCCO[C@@H]3[C@H](NS(C)(=O)=O)C2)cc1` the cytotoxicity at 70.5 h was -9.16%.
For `COc1cccc(C(=O)NS(=O)(=O)c2cncc(Br)c2)c1OC`, the cytotoxicity at 70.5 h was -12.4%.
`O=C(NCCNc1ncccn1)N1CCN(Cc2cccnc2)CC1` gave a cytotoxicity at 70.5 h of 21.2%.
Compound `CN(Cc1cccnc1)C[C@@H]1OC[C@H]2CN(C(=O)C3CC3)CC[C@H]21` has a cytotoxicity at 70.5 h of -5.43%.
In the case of `OCc1ccncc1NCc1cnc(-c2ccccn2)s1`, the cytotoxicity at 70.5 h is reported as 0.118%.
`O=C(c1nc2c(s1)CCCN2CC1CC1)N1CCOCC1` gave a cytotoxicity at 70.5 h of 4.5%.
With `CCOCC(=O)N1CCC(C2CCN(Cc3ccc(Cl)cc3)C2)CC1` (stereo unspecified) the cytotoxicity at 70.5 h was -2.4%.
Work on `CC(C)(C)CN[C@@H]1CO[C@H](CNC(=O)c2cccs2)[C@H]1O` yielded a cytotoxicity at 70.5 h of 4.02%.
Work on `Cc1ccc(C(=O)Nc2cc(C(N)=O)ccc2N2CCCCC2)cc1F` yielded a cytotoxicity at 70.5 h of -2.35%.
Compound `CC(CNC(=O)c1nc(N2CCOCC2)ncc1Cl)c1ccccc1` (stereo unspecified) has a cytotoxicity at 70.5 h of 7.86%.
Work on `CNS(=O)(=O)c1ccsc1C(=O)OC` yielded a cytotoxicity at 70.5 h of -5.92%.
In the case of `O=C(NCCNc1cc(N2CCCC2)ncn1)c1cnccn1`, the cytotoxicity at 70.5 h is reported as -7.66%.
For `CN1CCCC2(CCN(C(=O)Cc3cc4c(cc3Cl)OCCO4)C2)C1=O` (stereo unspecified), the cytotoxicity at 70.5 h was -2.31%.
With `CC(=O)N1CCCC1c1cccc(Cc2ccc(F)cc2)n1` (stereo unspecified) the cytotoxicity at 70.5 h was -14.3%.
In the case of `Cc1cccc(-c2noc(CN3CCOC(Cn4cccn4)C3)n2)c1` (stereo unspecified), the cytotoxicity at 70.5 h is reported as -11.5%.
Work on `c1nn(C2CCCCC2)cc1-c1cncn1CCCN1CCCCC1` yielded a cytotoxicity at 70.5 h of -0.625%.
`Cc1cnc(C)c(N2CCC(C(=O)O)(n3ccc(C(C)(C)C)n3)CC2)n1` showed a cytotoxicity at 70.5 h of 30.8%.
For `COc1cc(CN2CCCC2)ccc1Oc1ccc2c(c1)CC(CN)O2` (stereo unspecified), the cytotoxicity at 70.5 h was 1.9%.
Work on `COC(=O)C(CCSC)NC(=O)Cc1c(C)nn(-c2ccccc2)c1C` (stereo unspecified) yielded a cytotoxicity at 70.5 h of 1.93%.
With `COc1cc(CNCCc2cnn(C)c2)cc(OC)c1OC` the cytotoxicity at 70.5 h was 21.4%.
`CC(=O)Nc1nc(C2CN(C(=O)C3CCC3)C2)cs1` showed a cytotoxicity at 70.5 h of -7.1%.
In the case of `Cc1cc(CN(C)C(=O)C(c2cccnc2)N2CCOCC2)n[nH]1` (stereo unspecified), the cytotoxicity at 70.5 h is reported as -10.1%.
`O=C1CN(c2ccc(CNC(=O)NCc3ccoc3)cc2)CCN1` showed a cytotoxicity at 70.5 h of -11.8%.
Compound `Cc1cc(C)n(CC2CCCN2CCCS(N)(=O)=O)n1` (stereo unspecified) has a cytotoxicity at 70.5 h of -8.83%.
`Cc1noc(C)c1C(=O)N[C@@H]1CC[C@@H](Oc2ccccc2)[C@@H]1O` showed a cytotoxicity at 70.5 h of -2.95%.
For `Cc1ccccc1[C@@H]1CN(Cc2ccc(C(F)(F)F)nc2)C[C@H]1C(=O)O`, the cytotoxicity at 70.5 h was -4.46%.
Work on `Cc1nnc(CN(Cc2ccc3c(c2)OCO3)C2CCCCC2)o1` yielded a cytotoxicity at 70.5 h of -2.59%.
Compound `COc1cccc(CC2CN(C3CCN(C(C)=O)CC3)CCO2)c1` (stereo unspecified) has a cytotoxicity at 70.5 h of -5.79%.
`CCCn1ncc(CN2CCCCC2CCCOC)c1C` (stereo unspecified) gave a cytotoxicity at 70.5 h of -2.59%.
With `CN(C)CC1CN(C(=O)CCc2ccccc2)Cc2nccn2C1` (stereo unspecified) the cytotoxicity at 70.5 h was 1.84%.
With `Cc1nc2n(n1)CC(NCc1cc(Cl)c3c(c1)OCCCO3)CC2` (stereo unspecified) the cytotoxicity at 70.5 h was -6.52%.
Compound `O=C(O)CN1CCC(c2ccccc2)CC1` has a cytotoxicity at 70.5 h of -3.19%.
In the case of `CN(CC1CCCCO1)c1nncc(-c2cccc(F)c2)n1` (stereo unspecified), the cytotoxicity at 70.5 h is reported as -3.62%.
`O=C(NCCN1CCCc2ccccc21)c1scnc1Cl` showed a cytotoxicity at 70.5 h of 10.6%.
Compound `CC(C)(NC(=O)c1cnc(-c2ccccc2F)s1)C(N)=O` has a cytotoxicity at 70.5 h of -10.3%.
In the case of `COc1ncccc1NC(=O)N1CCOCC1C` (stereo unspecified), the cytotoxicity at 70.5 h is reported as 4.15%.
For `CCOc1ccc(C(=O)CCC(=O)NCCc2nncn2CC)cc1C`, the cytotoxicity at 70.5 h was 22.5%.
In the case of `O=c1[nH]c2nc(N3CCSCC3)ncc2c(=O)n1-c1cccc(F)c1`, the cytotoxicity at 70.5 h is reported as -0.348%.

From ChEMBL document CHEMBL3507680, “University of Dundee, Gates Library screen for HepG2 cell viability”
